What was measured:
[1] = test system: IL-6; test: AGE (G-HSA)-induced inflammatory response determined by IL-6 ELISA in HAEC; type: cell-based, human; conditions: Homo sapiens; for activity at 10 µM: 24 h, Compds tested @ 10 uM; for IC50: IL6, unit inferred, read-out: IC50 (AGE stimulation of IL6)
Description: Human aortic endothelial cells (HAEC, Clonetics) were cultured according to manufacturer in growth medium (Clonetics): basal medium containing human epidermal growth factor, hydrocortisone, vascular endothelial growth factor, heparin binding growth factor-B, long R3-insulin-like growth factor-1, ascorbic acid, gentamicin/amphotericin and 5% FBS. These cell were allowed to reach at least 90% confluency before subjected to experimental treatments. […] Tumor necrosis factor α was from R&D Systems.
All treatments, compound-added and controls were carried out in serum free media containing 0.2% albumin. Media from all conditions were collected and used for IL-6 ELISA.
(§1) IL-6 ELISA was carried out using human IL-6 DuoSet ELISA development kit as described by manufacturer (R&D Systems). Mouse anti-human Il-6 was used as the capture antibody (2 ug/ml) and biotinylated goat anti-human IL-6 (200 ng/ml) was used as the detection antibody. Culture media were incubated with capture antibody (in 96 well) for 2 h at room temperature. Wells were washed three times with wash buffer (0.05% tween-20 in phosphate buffered saline (PBS) pH 7.4) followed by incubation with detection antibody for 2 h at room temperature. Following three washes wells were incubated with Streptavidin-HRP for 20 min. Color development was read at 450 nm in a Microplate reader.

[2] = test system: IL-6; test: TNF-α-induced IL-6 production determined by IL-6 ELISA in HAEC; type: cell-based, human; conditions: Homo sapiens, HAEC, IL6; for activity at 10 µM: 24 h, Compds tested @ 10 uM, read-out: % IL6 production compare to TNF stimulation of IL6 (100%)
Description: Human aortic endothelial cells (HAEC, Clonetics) were cultured according to manufacturer in growth medium (Clonetics): basal medium containing human epidermal growth factor, hydrocortisone, vascular endothelial growth factor, heparin binding growth factor-B, long R3-insulin-like growth factor-1, ascorbic acid, gentamicin/amphotericin and 5% FBS. These cell were allowed to reach at least 90% confluency before subjected to experimental treatments. Glycated human serum albumin (G-HSA) was from US Biologicals. Tumor necrosis factor α was from R&D Systems.
[…] All treatments, compound-added and controls were carried out in serum free media containing 0.2% albumin. Media from all conditions were collected and used for IL-6 ELISA.
as §1

[3] = IL6, read-out: % IL6 production compare to AGE stimulation of IL6 (100%)

Row | Structure (SMILES) | activity at 10 µM [1, 3] | activity at 10 µM [2] | further results
1 | CCN1CCCC1CNc1nc(Nc2ccc3ncccc3c2)nc(NC2CCCCCC2)n1 (stereo not shown) [Compound 4, N^2-cycloheptyl-N^4-[(1-ethyl-2-pyrrolidinyl)methyl]-N^6-(6-quinolinyl)-1,3,5-triazine-2,4,6-triamine] | 1% |  | 
2 | CCN1CCCC1CNc1nc(Nc2ccc(F)cc2)nc(NC2CCCCCC2)n1 (stereo not shown) [Compound 10, N^2-cycloheptyl-N^4-[(1-ethyl-2-pyrrolidinyl)methyl]-N^6-(4-fluorophenyl)-1,3,5-triazine-2,4,6-triamine] | 1% |  | 
3 | CCN1CCCC1CNc1nc(Nc2ccc(C#N)cc2)nc(NC2CCCCCC2)n1 (stereo not shown) [Compound 11, 4-[(4-(cycloheptylamino)-6-{[(1-ethyl-2-pyrrolidinyl)methyl]amino}-1,3,5-triazin-2-yl)-amino]benzonitrile] | 1% |  | IC50 [1]: 8.87 µM
4 | CCN1CCCC1CNc1nc(Nc2ccc3c(c2)OCCO3)nc(NC2CCCCCC2)n1 (stereo not shown) [Compound 24, N^2-cycloheptyl-N^4-(2,3-dihydro-1,4-benzodioxin-6-yl)-N^6-[(1-ethyl-2-pyrrolidinyl)methyl]-1,3,5-triazine-2,4,6-triamine] | 1% |  | 
5 | CCN1CCCC1CNc1nc(Nc2ccc(N(C)C)cc2)nc(NC2CCCCCC2)n1 (stereo not shown) [Compound 25, N^2-cycloheptyl-N^4-[4-(dimethylamino)phenyl]-N^6-[(1-ethyl-2-pyrrolidinyl)methyl]-1,3,5-triazine-2,4,6-triamine] | 1% |  | 
6 | CCN1CCCC1CNc1nc(Nc2ccc(N3CCOCC3)cc2)nc(NC2CCCCCC2)n1 (stereo not shown) [Compound 27, N^2-cycloheptyl-N^4-[(1-ethyl-2-pyrrolidinyl)methyl]-N^6-[4-(4-morpholinyl)phenyl]-1,3,5-triazine-2,4,6-triamine] | 1% | 3% | 
7 | CCN1CCCC1CNc1nc(Nc2ccc(NC(C)=O)cc2)nc(NC2CCCCCC2)n1 (stereo not shown) [Compound 29, N-{4-[(4-(cycloheptylamino)-6-{[(1-ethyl-2-pyrrolidinyl)methyl]amino}-1,3,5-triazin-2-yl)-amino]phenyl}acetamide] | 7% | 13% | 
8 | CCN1CCCC1CNc1nc(Nc2cccc(NC(C)=O)c2)nc(NC2CCCCCC2)n1 (stereo not shown) [Compound 30, N-{3-[(4-(cycloheptylamino)-6-{[(1-ethyl-2-pyrrolidinyl)methyl]amino}-1,3,5-triazin-2-yl)-amino]phenyl}acetamide] | 17% | 9% | 
9 | CCOc1ccc(Nc2nc(NCC3CCCN3CC)nc(NC3CCCCCC3)n2)cc1 (stereo not shown) [Compound 32, N^2-cycloheptyl-N^4-(4-ethoxyphenyl)-N^6-[(1-ethyl-2-pyrrolidinyl)methyl]-1,3,5-triazine-2,4,6-triamine] | 1% |  | 
10 | CCN1CCCC1CNc1nc(Nc2ccccn2)nc(NC2CCCCCC2)n1 (stereo not shown) [Compound 34, N^2-cycloheptyl-N^4-[(1-ethyl-2-pyrrolidinyl)methyl]-N^6-(2-pyridinyl)-1,3,5-triazine-2,4,6-triamine] | 1% | 3% | 
11 | CCN1CCCC1CNc1nc(Nc2scc(C)c2C(N)=O)nc(NC2CCCCCC2)n1 (stereo not shown) [Compound 39, 2-[(4-(cycloheptylamino)-6-{[(1-ethyl-2-pyrrolidinyl)methyl]amino}-1,3,5-triazin-2-yl)-amino]-4-methyl-3-thiophenecarboxamide] | 28% |  | 
12 | CCN1CCCC1CNc1nc(NC2CCCCCC2)nc(N(C)c2ccc(Cl)cc2)n1 (stereo not shown) [Compound 40, N^2-(4-chlorophenyl)-N^4-cycloheptyl-N^6-[(1-ethyl-2-pyrrolidinyl)methyl]-N^2-methyl-1,3,5-triazine-2,4,6-triamine] | 19% |  | 
13 | CCN1CCCC1CNc1nc(NC2CCCCCC2)nc(N(CCC#N)c2ccccc2)n1 (stereo not shown) [Compound 41, 3-[(4-(cycloheptylamino)-6-{[(1-ethyl-2-pyrrolidinyl)methyl]amino}-1,3,5-triazin-2-yl)-(phenyl)amino]propanenitrile] | 18% |  | 
14 | CCN1CCCC1CNc1nc(NC2CCCCCC2)nc(N(C)c2ccc(OC)cc2)n1 (stereo not shown) [Compound 42, N^2-cycloheptyl-N^4-[(1-ethyl-2-pyrrolidinyl)methyl]-N^6-(4-methoxyphenyl)-N^6-methyl-1,3,5-triazine-2,4,6-triamine] | 1% | 1% | 
15 | CCN1CCCC1CNc1nc(NC2CCCCCC2)nc(N(C)c2ccc(F)cc2F)n1 (stereo not shown) [Compound 43, N^2-cycloheptyl-N^4-(2,4-difluorophenyl)-N^6-[(1-ethyl-2-pyrrolidinyl)methyl]-N^4-methyl-1,3,5-triazine-2,4,6-triamine] | 4% |  | 
16 | CCN1CCCC1CNc1nc(NC2CCCCCC2)nc(N(CC#N)c2ccccc2)n1 (stereo not shown) [Compound 44, [(4-(cycloheptylamino)-6-{[(1-ethyl-2-pyrrolidinyl)methyl]amino}-1,3,5-triazin-2-yl)(phenyl)amino]acetonitrile] | 1% |  | IC50 [1]: 7.1 µM
17 | CCN1CCCC1CNc1nc(NC2CCCCCC2)nc(N(C)c2cccc(Cl)c2)n1 (stereo not shown) [Compound 45, N^2-(3-chlorophenyl)-N^4-cycloheptyl-N^6-[(1-ethyl-2-pyrrolidinyl)methyl]-N^2-methyl-1,3,5-triazine-2,4,6-triamine] | 1% |  | 
18 | CCN1CCCC1CNc1nc(NC2CCCCCC2)nc(N(C)c2ccccc2C(F)(F)F)n1 (stereo not shown) [Compound 46, N^2-cycloheptyl-N^4-[(1-ethyl-2-pyrrolidinyl)methyl]-N^6-methyl-N^6-[2-(trifluoromethyl)phenyl]-1,3,5-triazine-2,4,6-triamine] | 3% |  | 
19 | CCN1CCCC1CNc1nc(NCc2ccccc2)nc(Nc2ccc(OC)c(F)c2)n1 (stereo not shown) [Compound 53, N^2-benzyl-N^4-[(1-ethyl-2-pyrrolidinyl)methyl]-N^6-(3-fluoro-4-methoxyphenyl)-1,3,5-triazine-2,4,6-triamine] | 32% | 1% | 
20 | CCN1CCCC1CNc1nc(Nc2ccc(OC)c(F)c2)nc(N2CCCC2)n1 (stereo not shown) [Compound 57, N^2-[(1-ethyl-2-pyrrolidinyl)methyl]-N^4-(3-fluoro-4-methoxyphenyl)-6-(1-pyrrolidinyl)-1,3,5-triazine-2,4-diamine] | 25% | 1% | 
21 | CCN1CCCC1CNc1nc(Nc2ccc(OC)c(F)c2)nc(N2CCN(C)CC2)n1 (stereo not shown) [Compound 62, N^2-[(1-ethyl-2-pyrrolidinyl)methyl]-N^4-(3-fluoro-4-methoxyphenyl)-6-(4-methyl-1-piperazinyl)-1,3,5-triazine-2,4-diamine] | 42% |  | 
22 | CCN1CCCC1CNc1nc(NCC2CCCCC2)nc(Nc2ccc(OC)c(F)c2)n1 (stereo not shown) [Compound 65, N^2-(cyclohexylmethyl)-N^4-[(1-ethyl-2-pyrrolidinyl)methyl]-N^6-(3-fluoro-4-methoxyphenyl)-1,3,5-triazine-2,4,6-triamine] | 45% | 1% | IC50 [1]: 3.24 µM; IC50 ([2]; unit inferred, read-out: IC50 (TNF stimulation of IL6)): 6.7 µM
23 | CCN1CCCC1CNc1nc(NCc2ccco2)nc(Nc2ccc(OC)c(F)c2)n1 (stereo not shown) [Compound 66, N^2-[(1-ethyl-2-pyrrolidinyl)methyl]-N^4-(3-fluoro-4-methoxyphenyl)-N^6-(2-furylmethyl)-1,3,5-triazine-2,4,6-triamine] | 23% | 1% | 
24 | CCN1CCCC1CNc1nc(NCC(F)(F)F)nc(Nc2ccc(OC)c(F)c2)n1 (stereo not shown) [Compound 67, N^2-[(1-ethyl-2-pyrrolidinyl)methyl]-N^4-(3-fluoro-4-methoxyphenyl)-N^6-(2,2,2-trifluoroethyl)-1,3,5-triazine-2,4,6-triamine] | 39% |  | 
25 | CCN1CCCC1CNc1nc(NCCCN2CCCC2=O)nc(Nc2ccc(OC)c(F)c2)n1 (stereo not shown) [Compound 74, 1-[3-({4-{[(1-ethyl-2-pyrrolidinyl)methyl]amino}-6-[(3-fluoro-4-methoxyphenyl)amino]-1,3,5-triazin-2-yl}amino)propyl]-2-pyrrolidinone] | 49% |  | 
26 | COc1ccc(Nc2nc(NCCCn3ccnc3)nc(NC3CCCCCC3)n2)cc1F [Compound 100, N^2-cycloheptyl-N^4-(3-fluoro-4-methoxyphenyl)-N^6-[3-(1H-imidazol-1-yl)propyl]-1,3,5-triazine-2,4,6-triamine] | 1% |  | 
27 | CN1CCC(N(C)c2nc(Nc3ccc4ccccc4c3)nc(NC3CC3)n2)CC1 [Compound 180, N-Cyclopropyl-N′-methyl-N′-(1-methyl-piperidin-4-yl)-N″-naphthalen-2-yl-[1,3,5]triazine-2,4,6-triamine] |  |  | activity at 10 µM ([1]; read-out: % IL6 production compare to AGE stimulation of IL6 (100%)): 5%

Source: US7169785B2, “Methods and compositions of novel triazine compounds” (Reddy US Therapeutics, Inc., priority 2001, dated 2007)
